Like-named read-outs stand apart in the source and are kept apart here.
Experiments:
[1] = Mouse plasma protein binding assay (rapid equilibrium dialysis); type: in vitro ADME; details: mouse plasma/serum, 4 h
Description: The plasma protein binding assay was performed with a Rapid Equilibrium Dialysis (RED) device (Thermo Scientific, Rockford, IL) according to the manufacturer’s directions and as previously described. […] Aliquots were taken at 30 min and 4 h, diluted with phosphate-buffered saline (PBS), and quenched in 75 µL cold acetonitrile/water (9:1) + 0.1% formic acid mixture containing 5 µM internal standard 1,8-diazabicyclo(5.4.0)undec-7-ene (DBU). The resulting mixture was incubated at −80 °C for 30 min and subjected to centrifugation at 20,000 × g for 20 min.

[2] = system: M. abscessus ATCC 19977; type: cell-based, Mycobacteroides abscessus

With `C[C@@H](O)C1C(=O)N2C(C(=O)O)=C(SC3CN(C4=NCCS4)C3)SC12` (stereo in doubt) [T405] the “blood plasma binding (bound)” value [1] was 98%, the “Reduction in the frequency of resistance on addition of avibactam” value ([2]; T405 2 µg/mL with vs without avibactam 256 µg/mL) was roughly 3 log and the Resistance frequency ([2]; T405 at MIC (2 µg/mL) combined with avibactam at its MIC of 256 µg/mL) was 5.8 × 10^−9. For the same compound, the Resistance frequency ([2]; drug alone at its individual MIC (T405 2 µg/mL, imipenem 8 µg/mL)) was 2.0 × 10^−6 and the “Frequency of resistance higher than that for imipenem” value ([2]; each at its MIC) was “approximately 1 log”.

From article PMC7721803, “Development of a penem antibiotic against Mycobacteroides abscessus” (Communications Biology, 2020)
